The results in this text go back to patent US5242942A, “Anticonvulsant fructopyranose cyclic sulfites and sulfates” (McNeilab, Inc., priority 1992, dated 1993).

In assay [1] the test system is Total Acid Output. Briefly: pylorus-ligated rat test, gastric antisecretory activity. In kind it is in vivo, rat (male Charles River Sprague-Dawley derived). The following applies: IP, 200 mg/kg. Here is the method:
The gastric antisecretory activity of the compounds shown in Table II was determined by the pylorus-ligated rat test described by Shay et al. in Gastroenterol. 1954, 26, 906. In this method, male Charles River Sprague-Dawley derived rats weighing 150-300 grams were deprived of food but not water for 18-24 hours prior to use. Water was withheld during the experiment, however. The rats were weighed, lightly anesthetized with ether and the pylorus ligated according to the method of Shay et al., supra. The treatment or vehicle control was then administered intraperitoneally (IP) or orally (PO). When administered by the IP route, the administration was done 30 minutes before ligation. When administered by the PO route, the administration was done prior to ligation (about 1/2 to 3 hours before). Rats were housed two per cage and sacrificed with carbon dioxide 3 hours after ligation. Their stomachs were removed, rinsed, and contents emptied into a graduated centrifuge tube. The tubes were centrifuged, the volume of gastric juice was recorded, and any samples obviously contaminated by feces, food or blood were eliminated. A 1 mL aliquot of gastric juice was titrated with 0.1N NaOH to a pH of 7.0-7.4. The volume of gastric juice secreted, the acid concentration, and the product of the volume times the concentration, i.e. the total amount of acid secreted, were measured. The total acid output was calculated by multiplying the volume of gastric juices collected times the hydrogen ion concentration (amount of NaOH added to a sample to reach a pH of 7.0-7.4) and dividing that value by 10. The mean value of the total acid output for a control group of rats was then subtracted from the mean value of the total acid output for the group of rats tested at the same dose. That value was then divided by the mean value of total acid output for the control group and the resulting number was multiplied by 100 to provide a Percent Inhibition value, which values are reported in Table II. The […] was determined statistically as the dose at which a 50% inhibition would be realized.

Assay [2] concerns tonic extensor seizure. The assay can be described thus: maximal electroshock test (MES). In kind it is in vivo, mouse (albino male CRS-CD1). Conditions: PO, mouse, 4 hr, read-out: % Block (MES Test, mouse). Here is the method:
The compounds of formula (I) are particularly useful as anticonvulsant agents in mammals including humans. The anticonvulsant activity of the subject compounds was determined using a standard "maximal electroshock test" (MES). In this test, activity is indicated by a block of the […] extensor seizure caused by application of an electric shock to mice via corneal electrodes, as described by Swinyard et al. in J. Pharmacol. Expt. Ther. 1952, 106, 319, and recorded as % block. A more recent description of current anticonvulsant drug screening is given by Swinyard in Epilepsia 1978, 19, 409. The anticonvulsant activity of the compounds of this invention tested according to the Swinyard 1952 method is shown in the following Table I.
In the test, albino male CRS-CD1 mice weighing between 18-25 g were used in all experiments (obtained from Charles River). They were allowed food and water ad libitum and were used only once. The electroshock apparatus and the corneal electrodes were purchased from Wahlquist Instrument Company, Salt Lake City, Utah.
Maximal electroshock seizures were induced by the delivery of a 60 Hertz (Hz) current of 50 milliamps (mA) intensity to the mouse through corneal electrodes for 0.2 seconds as originally described by Swinyard et al. (1952). This stimulus intensity is approximately 4 to 6 times the current producing 100% tonic extensor convulsions. During the validation of the MES test, the duration of the various seizure components following maximal electroshock were measured as follows: hindleg tonic flexion was measured from the time of the application of the stimulus to the time of onset of hindleg tonic extension (i.e. when the hindlegs deviate by greater than an angle of 90° from the torso), hindleg tonic extensor was measured from the time of extensor thrust to the onset of generalized clonus, and terminal clonus was measured from the beginning to the end of bilateral rhythmic clonic jerking. Mortality was also recorded. The duration of each seizure component agreed well with the values previously reported by Tedeschi et al. in J. Pharmacol. Expt. Ther. 1955, 116, 107. The corneal electrodes were concave so that saline could be applied to the electrodes to reduce mortality. If this procedure is followed, mortality should always be less than 40% in control mice. Thus, at an electroshock stimulus of 60 Hz, 50 mA and 0.2 seconds duration, the order of convulsive components and the percentage of control animals displaying the behaviors should be as follows: tonic flexion (100%), tonic extension (100%) and clonus (100%) with less than 40% mortality.
For testing compounds, the abolition of the tonic extensor component was the endpoint. Animals were dosed orally (PO) with either vehicle or test drug and at a specified time were given a maximal electric shock through corneal electrodes blotted with saline (as described above). A minimum of 10 animals were used per group and the percentage of animals in the group without tonic hindlimb extension recorded. Determination of ED50 values (that dose of drug inhibiting 50% of the tonic extensor seizures) is shown below in Table I.
Background: The maximal electroshock test induces tonic seizures with an electrical stimulus.

A short description of assay [3]: rat diuresis study. In kind it is in vivo, rat (male Wistar). The following applies: 2.5 mg/kg PO, average of five animals. The source says: Evidence for the inhibition of carbonic anhydrase by compounds of the formula (I) can also be obtained by a diuresis study, such as described by A. Weiner in Goodman and Gilman's The Pharmacological Basis of Therapeutics, 8th ed.; Goodman Gilman, A.; Rall, T. W.; Nies, A. S.; Taylor, P., Eds.; Pergamon Press: New York, 1990; pp 716-718. An increase in urine akalinity accompanied with an increase in water intake and urine output provides an indirect indication of carbonic anhydrase inhibition activity. Male Wistar rats having a weight of 250-300 g were dosed orally (PO) and housed in cages that allowed for the quantitative measure of fluid intake and urine output. Water intake and urine output were measured at 24 hours versus control, whereas urine pH, obtained via pH meter, was measured at 4 and 24 hours versus control. The results of this study, which are the average of five animals, are reported below in Table III. […] Such data is also an indication of the usefulness of the compounds of formula (I) as diuretics in the treatment of hypertension, congestive heart failure and other types of edema. The determination of suitable dosages for such compounds for the treatment of hypertension and congestive heart failure and other types of edema is within the skill of the art.

On to `CC1(C)O[C@H]2[C@@H]3OS(=O)(=O)O[C@@H]3CO[C@@]2(COS(=O)(=O)NC2CCCCCCC2)O1` [Example 11, 2,3-O-(1-Methylethylidene)-4,5-O-sulfonyl-β-D-fructopyranose Cyclooctylsulfamate], for which, in assay [1], the “Percent Inhibition of Total Acid Output” value came out at 50%. In assay [2] (75 mg/kg), the responders at 75 mg/kg turned out to be 30%.
On to `CC1(C)O[C@H]2[C@@H]3OS(=O)(=O)O[C@@H]3CO[C@@]2(COS(=O)(=O)N=[N+]=[N-])O1` [Example 15, 2,3-O-(1-Methylethylidene)-4,5-O-sulfonyl-β-D-fructopyranose Azidosulfate], for which the “Percent Inhibition of Total Acid Output” value in assay [1] was 96%. In addition, in assay [2] (35 mg/kg), the responders at 35 mg/kg is 100%.
Regarding `NS(=O)(=O)OC[C@@]12OC[C@H]3OS(=O)(=O)O[C@H]3[C@@H]1OC1(CCCCC1)O2` [Example 21, 2,3-O-(Cyclohexylidene)-4,5-O-sulfonyl-β-D-fructopyranose Sulfamate], in assay [1], the “Percent Inhibition of Total Acid Output” value was found to be 27%.
Turning to `CC1(C)O[C@H]2[C@@H]3OS(=O)(=O)O[C@@H]3CO[C@@]2(COS(=O)(=O)NC2CC2)O1` [Example 9, 2,3-O-(1-Methylethylidene)-4,5-O-sulfonyl-β-D-fructopyranose Cyclopropylsulfamate], the “Percent Inhibition of Total Acid Output” value in assay [1] amounted to 87%. Further, in assay [2] (10 mg/kg), the responders at 10 mg/kg stood at 90%. Besides, the “Urine pH” value in assay [3] (4 hours, control 6.98) stood at 9.02; in assay [3] (24 hours, control 6.43), 7.26. The “Water Intake” value in assay [3] (24 hours, control 15.0) was found to be 27.8 mL. Besides, the “Urine Output” value in assay [3] (24 hours, control 17.6) turned out to be 33.2 mL.
